# Experimental data: PubChem BioAssay (NCI)
# Where “and” joins values, the source holds several entries; their conditions need not be identical. Equal values may be shown once.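 Method: 48-hour compound exposure of cells in 96-well plates, five concentrations, linear interpolation of endpoints. GI50: concentration for 50% inhibition of growth. TGI denotes the concentration required for complete inhibition of growth.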
# What was measured:
# Test in all cases: growth of human tumour cells (NCI), 48 h
# K-562 leukemia = tested on: K-562 leukemia
# MDA-MB-435 = tested on: MDA-MB-435
# SK-MEL-2 melanoma = tested on: SK-MEL-2 melanoma
# BT-549 breast = tested on: BT-549 breast
# EKVX NSCLC = tested on: EKVX NSCLC
# OVCAR-8 ovarian = tested on: OVCAR-8 ovarian
# HOP-92 NSCLC = tested on: HOP-92 NSCLC
# UACC-62 melanoma = tested on: UACC-62 melanoma
# SR leukemia = tested on: SR leukemia
# A498 renal = tested on: A498 renal
Compound,GI50 (K-562 leukemia),TGI (K-562 leukemia) [µM],GI50 (MDA-MB-435) [µM],TGI (MDA-MB-435) [µM],GI50 (SK-MEL-2 melanoma),TGI (SK-MEL-2 melanoma),GI50 (BT-549 breast) [µM],TGI (BT-549 breast) [µM],GI50 (EKVX NSCLC) [µM],TGI (EKVX NSCLC),GI50 (OVCAR-8 ovarian) [µM],TGI (OVCAR-8 ovarian),GI50 (HOP-92 NSCLC),TGI (HOP-92 NSCLC),GI50 (UACC-62 melanoma) [µM],TGI (UACC-62 melanoma),GI50 (SR leukemia) [µM],TGI (SR leukemia) [µM],GI50 (A498 renal),TGI (A498 renal)
O=S(=O)(NC(=S)Nc1ccccc1)c1ccc(N2N=C3c4ccccc4CC3C2c2cccs2)cc1 (configuration not stated),31.3 µM,56.5,19.4,45.6,59.9 µM,> 100 µM,24.6,66.2,19.5,54.4 µM,39,> 100 µM,24.9 µM,71.7 µM,18.5,37.3 µM,,,,
Nc1nc2c(c3ncccc13)C(c1cccc(Cl)c1)Cc1ncccc1-2 (configuration not stated),0.53 µM,> 100,0.29,1.17,1.84 µM,15.4 µM,2.28,13.3,4.9,> 100 µM,3.95,37.5 µM,,,0.628,16.6 µM,0.469,14.3,1.35 µM,6.24 µM
O=C(O)c1cc2ccccc2c(N=Nc2c([N+](=O)[O-])cc([N+](=O)[O-])cc2S(=O)(=O)O)c1O,,> 100,,> 100,,> 100 µM,,> 100,,> 100 µM,,> 100 µM,,> 100 µM,,> 100 µM,,,,
N/N=C1\c2ccccc2C2/C(=N\N)c3ccccc3C12 (configuration not stated),,> 100,,,,> 100 µM,,,,> 100 µM,,> 100 µM,,> 100 µM,,> 100 µM,,,,
CC1C=C(OC(=O)c2ccccc2)C(=O)C(n2cc(F)c(=O)n(C(=O)c3ccccc3)c2=O)O1 (configuration not stated),,55.1,,,,> 100 µM,,,,> 100 µM,,> 100 µM,,> 100 µM,,98.6 µM,,,,
CCOc1ccccc1NC(=O)CCc1nnc2s/c(=C\CCc3ccccc3)c(=O)n12,,> 100,,,,> 100 µM,,,,,,> 100 µM,,> 100 µM,,> 100 µM,,> 100,,> 100 µM
CCc1cccc(CC)c1NC(=S)NC(=O)c1ccc(Br)cc1,,> 100,,83.5,,48.9 µM,,,,> 100 µM,,> 100 µM,,64.6 µM,,> 100 µM,,66.3,,> 100 µM
CC1CCCC(C(O)CC2CC(=O)N(c3ccccc3)C(=O)C2)C1=O (configuration not stated),,> 100,,,,,,,,> 100 µM,,> 100 µM,,> 100 µM,,> 100 µM,,> 100,,> 100 µM
COc1cc2c3c(n(CCCN4CCN(C)CC4)c(=O)c2cc1OC)-c1cc2c(cc1C3=O)OCO2,6.49 µM,22,> 100,> 100,> 100 µM,> 100 µM,80.8,> 100,17.7,41.1 µM,18.1,46.5 µM,19.8 µM,46.9 µM,15.1,34.2 µM,,,,
CCC(C(=O)[O-])C(=O)[O-].CCC(C(=O)[O-])C(=O)[O-].N.N.NCCCCCN.[Pt+4].[Pt+4],> 100 µM,> 100,,,> 100 µM,> 100 µM,,,> 100,> 100 µM,> 100,> 100 µM,> 100 µM,> 100 µM,38.3,> 100 µM,,,> 100 µM,> 100 µM
FC(F)(F)c1ccc(C=NC23CC4CC(CC(C4)C2)C3)cc1,,> 100,,,,> 100 µM,,,,> 100 µM,,> 100 µM,,> 100 µM,,> 100 µM,,> 100,,> 100 µM
C=CCNC1=C(C(=O)OCC)C(=O)CO1,,> 100,,,,> 100 µM,,,,> 100 µM,,> 100 µM,,> 100 µM,,> 100 µM,,> 100,,> 100 µM
COc1ccc2nc(NCCCNCCO)c3sc4ccc(F)cc4c(=O)c3c2c1,,,1.66,3.1,1.92 µM,3.95 µM,12.8,31.7,1.45,2.94 µM,,,1.1 µM,2.45 µM,1.76,3.29 µM,,,1.53 µM,2.98 µM
O=C(O)CCC1COc2ccccc2O1 (configuration not stated),,> 10,,> 10,,> 10 µM,,> 10,,> 10 µM,,> 10 µM,,> 10 µM,,> 10 µM,,,,> 10 µM
O=C(CC/C(C/C(=N/O)c1ccc(F)cc1)=N/O)N(Cc1ccccc1)Cc1ccccc1,,> 100,,,,> 100 µM,,,,> 100 µM,,> 100 µM,,> 100 µM,,> 100 µM,,,,> 100 µM
Cc1ccc(S(=O)(=O)N2CCC3(C(/C=C/c4ccccc4)=Nc4ccccc43)C2c2ccccc2)cc1 (configuration not stated),,> 100,,,,,,,,> 100 µM,,> 100 µM,,> 100 µM,,> 100 µM,,> 100,,> 100 µM
C=C(CN(CC(=C)C(=O)c1ccccc1)C(C)(C)C)C(=O)c1ccccc1,,21.1,,,,35.3 µM,,,,44.4 µM,,67.9 µM,,15 µM,,32.4 µM,,> 21,,32.9 µM
NC1=NC(c2ccccc2)N=C(Nc2ccccc2)N1 (configuration not stated),> 100 µM,> 100,34.5,> 100,> 100 µM,> 100 µM,> 100,> 100,> 100,> 100 µM,> 100,> 100 µM,> 100 µM,> 100 µM,> 100,> 100 µM,,,11.4 µM,> 100 µM
N#C/C(=C\c1ccc(Br)cc1)n1nnc2cccc(F)c21,0.386 µM,> 100,0.295,0.913,1.96 µM,5.14 µM,1.45,3.1,1.62,3.02 µM,2.59,13.6 µM,,,1.35,3.46 µM,,,2.04 µM,4.23 µM
Cn1cc2c(n1)c(N/N=C/c1ccccc1)nn1nnnc21,,> 100,,,,,,,,> 100 µM,,> 100 µM,,> 100 µM,,> 100 µM,,> 100,,> 100 µM

Compound,GI50 (K-562 leukemia),TGI (K-562 leukemia) [µM],GI50 (MDA-MB-435) [µM],TGI (MDA-MB-435) [µM],GI50 (SK-MEL-2 melanoma),TGI (SK-MEL-2 melanoma),GI50 (BT-549 breast) [µM],TGI (BT-549 breast) [µM],GI50 (EKVX NSCLC) [µM],TGI (EKVX NSCLC),GI50 (OVCAR-8 ovarian) [µM],TGI (OVCAR-8 ovarian),GI50 (HOP-92 NSCLC),TGI (HOP-92 NSCLC),GI50 (UACC-62 melanoma) [µM],TGI (UACC-62 melanoma),GI50 (SR leukemia) [µM],TGI (SR leukemia) [µM],GI50 (A498 renal),TGI (A498 renal)
CC(=O)OCC1OC(OC2CC3C(C)(C)C(OC(C)=O)CC[C@]3(C)C3CCC45CC4(CC[C@H]5C(C)CC(O)C4OC4(C)C)[C@]23C)C(O)C(O)C1O (some centres not stated),,2.22,,,4.29 µM,6.17 µM and 14.6 µM,,,> 60,> 60 µM and 11.7 µM,3,8.24 µM and 9.67 µM,,6.33 µM,> 60,,,8.58,,10.2 µM
CN(C)c1ccc(/C=C2\CNC/C(=C\c3ccc(N(C)C)cc3)C2=O)cc1,,> 100,,,,,,,,> 100 µM,,43.7 µM,,55.2 µM,,> 100 µM,,82.8,,39.5 µM
NC(=O)c1csc(C2C=CC(CO)O2)n1 (configuration not stated),,> 100,,,,> 100 µM,,,,> 100 µM,,> 100 µM,,> 100 µM,,> 100 µM,,,,> 100 µM
Cc1cc(S(=O)(=O)Nc2nc3ccsc3c(=O)n2Cc2ccco2)c(S)cc1Cl,25.6 µM,> 100,> 100,> 100,,,> 100,> 100,> 100,> 100 µM,> 100,> 100 µM,> 100 µM,> 100 µM,53.1,> 100 µM,9.95,29.7,> 100 µM,> 100 µM
C/C(=N\NC(=O)CC(=O)Nc1ccc(Cl)cc1)c1cc2ccccc2oc1=O,,> 100,,,,,,,,> 100 µM,,> 100 µM,,,,> 100 µM,,,,
O=C1C(Cl)=C(Nc2ccc3cn[nH]c3c2)C(=O)c2ccccc21,0.526 µM,2.06,1.51,2.83,1.71 µM,3.54 µM,1.5,2.82,1.5,4.6 µM,1.52,3.01 µM,1.57 µM,3 µM,1.5,2.93 µM,,,3.05 µM,8.9 µM
COc1cc(-c2oc3c(OC)c(OC)cc(O)c3c(=O)c2OC)ccc1O,,> 50,,> 50,2.52 µM and 6.91 µM,> 100 µM and 32.7 µM,,35.7,,> 50 µM,,> 50 µM,2.74 µM and 5.85 µM,9.13 µM and 30.1 µM,,> 100 µM,,,3.38 µM and 16.6 µM,> 100 µM and 42.4 µM
CCC(=O)OC1CCn2c1nc1c2C(=O)C(C)=C(N2CC2)C1=O (configuration not stated),0.128 µM and 0.739 µM,,,0.0922,0.038 µM,0.1 µM and 0.117 µM,,0.192,0.305,1.04 µM and 0.504 µM,0.0327,0.338 µM and 0.211 µM,2.61 µM,7.99 µM and 6.33 µM,0.0231,0.0577 µM and 0.127 µM,,,,0.106 µM
O=C([O-])c1ccc2c(c1)-c1nc-2nc2[n-]c(nc3nc(nc4[n-]c(n1)c1ccc(C(=O)[O-])cc41)-c1cc(C(=O)[O-])ccc1-3)c1ccc(C(=O)[O-])cc21.[Fe+2],> 23 µM,> 33.7,,,> 50 µM,> 50 µM,,,> 50,> 50 µM,> 50,> 50 µM,> 50 µM,> 50 µM,> 50,> 50 µM,19,> 50,> 50 µM,> 50 µM
Cc1c(O)c(=O)ccn1C1OC(CO)C(O)C1O (configuration not stated),,> 100,,,,> 100 µM,,,,> 100 µM,,> 100 µM,,> 100 µM,,> 100 µM,,> 100,,> 100 µM
COC(=O)C1=C(C(=O)OC)C23C=CC=CC24C(C(=O)OC)=C(C(=O)OC)C4C1C3 (configuration not stated),,> 100,,,,> 100 µM,,,,> 100 µM,,> 100 µM,,> 100 µM,,> 100 µM,,,,
O=C1CC2CCCCC2=C1O (configuration not stated),,> 100,,,,> 100 µM,,,,> 100 µM,,> 100 µM,,,,> 100 µM,,,,> 100 µM
O=C1c2cccnc2-c2nc(/C=C/c3ccccc3)cc3c2c1nc1ccccc13,1.43 µM,9.1,1.86,3.37,2.14 µM,4.99 µM,6.38,17.3,2.82,14 µM,3.8,> 30 µM,17.4 µM,> 100 µM,1.72,3.28 µM,,,3.88 µM,10.5 µM
CCCCCCCCCCCCCC/C(C(=O)OC)=C(/O)C(=O)OCC,,> 100,,,,32 µM,,,,> 100 µM,,> 100 µM,,54.5 µM,,65.1 µM,,,,> 100 µM
C=C1C(=O)O[C@H]2[C@H]1CC/C(COC(=O)C(=O)c1c[nH]c3ccc(OC)cc13)=C\CC[C@@]1(C)O[C@@H]21,> 100 µM,> 100,5.52,10.8,,> 20.4 µM,1.82,3.53,9.85,24.7 µM,6.88,19.4 µM,1.74 µM,3.85 µM,3.21,7.49 µM,3.29,29,,
CC1=C(C(=O)Nc2ccccc2C)C(c2ccc([N+](=O)[O-])cc2)C(C(=O)Nc2ccccc2C)=C(C)N1,,> 100,,,,> 100 µM,,,,> 100 µM,,> 100 µM,,,,> 100 µM,,,,80.5 µM
N#Cc1c[nH]n2ccnc12,,> 100,,,,> 100 µM,,> 100,,> 100 µM,,> 100 µM,,,,> 100 µM,,> 100,,> 100 µM
O=c1cccc(C#Cc2ccccc2)o1,40.4 µM,> 100,6.89,24.9,4.71 µM,> 33.9 µM,2.57,12.2,5.21,32.1 µM,> 22.8,> 100 µM,2.06 µM,13.8 µM,6.32,19.7 µM,,,2.38 µM,7.02 µM
CCOP(=O)(CC(=O)C1=C(O)C(CCCNC(=O)OC(C)(C)C)N(Cc2ccc(OC)c(OC)c2)C1=O)OCC (configuration not stated),,> 100,,,,> 100 µM,,,,> 100 µM,,> 100 µM,,,,> 100 µM,,> 100,,> 100 µM
